Legend:
[1] = Binding kinetics of ICG to nanoP^3; assay type: physicochemical
Procedure: The binding kinetics associated with the simple nanoP^3 conjugation process can be assessed by measuring the amount of bound cargo at different incubation time points and temperatures. NanoP^3 material was conjugated with the precise amount of indocyanine green (ICG) which was calculated in Example 5 to saturate the nanoparticle surface at a monolayer, i.e. 1.9×10^6 ICG molecules on a single nanoP^3 particle (99 nm radius). […] For this experiment, the plasma parameters were set at Q=3, 10 and 3 sccm for acetylene, nitrogen and argon, 150 mTorr and 50 W. The incubation of nanoP^3 (10^9 nanoP^3/mL) with ICG was performed at room temperature, in RT-PCR grade water (pH=7) for 1 hour.

mice = assay: IVIS fluorescence imaging of ICG after tail vein injection; conditions: mouse, in vivo
Procedure: In another animal experiment, mice were divided randomly into 3 groups: • 1) nanoP^3 only; • 2) nanoP^3 and ICG; or • 3) ICG only.
Following closure of the incision with silk sutures, each mouse was administered with 100 μL of the corresponding sample groups via tail vein injection: nanoP^3 control (9×10^9 nanoP^3), nanoP^3-ICG (9×10^9 nanoP^3 with 2.5 μg of ICG/10^9 nanoP^3) or ICG control (22.5 μg). Non-invasive imaging using IVIS was carried out for detection of fluorescence at Ex/Em=780 nm/820 nm.

[2] = system: Horseradish Peroxidase (HRP); assay: Activity of conjugated HRP detected with ABTS at 405 nm; assay type: biochemical; conditions: 0.5 μg/mL HRP, 4 hours incubation, after washing off free HRP
Procedure: NanoP^3 was collected from the nanoparticle collector under sterile conditions in a tissue culture hood with RT-PCR Grade water. The concentration of nanoparticles was measured by NanoSight LM10. Nanoparticles were then conjugated to desired antibodies (Goat anti-Rat IgG-Cy5; abcam ab6565; and Goat anti-Rabbit IgG; abcam ab150089 at 1:100 dilution), drugs (Doxorubicin: Sigma-Aldrich, D1515 at 100 μg/ml and Paclitaxel-Oregon Green 488, Invitrogen P22310 at 5 μg/mL) or proteins (Peroxidase from Horseradish; Sigma-Aldrich HRP; P6782 at 0.5 μg/mL) for up to 16 hours at 4° C., protected from light. Conjugation of HRP to 150 nm gold nanoparticles was performed (Cytodiagnostics; G-150) in an identical fashion. The samples were gently agitated using Bio RS-24 mini-rotator. […] The fluorescent intensity was measured using a plate reader, the Ex/Em were set in accordance to the fluorescent dye tag on each antibody or drug. […] For detection of HRP, conjugated nanoparticles and respective controls were incubated with ABTS (Sigma-Aldrich; A1888) and hydrogen peroxide (Merck; 386790) until colour was visible and measured at 405 nm. […]
Nanoparticles of nanoP^3 and gold (GNPs) were conjugated with horseradish peroxidase (HRP). These were detected by incubation with 2,2′-azino-bis(3-ethylbenzothiazoline-6-sulphonic acid) (ABTS). […]

Compound | time to surface saturation ([1]; both 24° C. and 4° C.) | total cargo immobilized on nanoP^3 within first 30 seconds ([1]; incubation at 4° C.) | total cargo immobilized on nanoP^3 within first 30 seconds ([1]; incubation at 24° C.) | fluorescence by IVIS at Ex/Em=780 nm/820 nm (mice) | HRP activity (absorbance at 405 nm with ABTS) [2]
CC1(C)C(/C=C/C=C/C=C/C=C2\N(CCCCS(=O)(=O)[O-])c3ccc4ccccc4c3C2(C)C)=[N+](CCCCS(=O)(=O)[O-])c2ccc3ccccc3c21.[Na+] [ICG, sodium 4-[2-[(1E,3E,5E,7Z)-7-[1,1-dimethyl-3-(4-sulfonatobutyl)benzo[e]indol-2ylidene]hepta-1,3,5-trienyl]-1,1-dimethylbenzo[e]indol-3-ium-3-yl]butane-1-sulfonate] | less than 5 minutes | 60% | 90% | absent | 
Horseradish Peroxidase [HRP alone] |  |  |  |  | below background levels of activity

From US12076417B2, “Plasma-derived nanoparticles” (NANOMEDX, INC., priority 2016, dated 2024)
